Measured values taken from US20110206739A1, “COMPOSITIONS AND METHODS FOR THE PREPARATION OF NANOEMULSIONS” (UNIVERSITY OF MASSACHUSETTS, priority 2008, published 2011).
Blank lines part the entries; values can stand above or below the compound they belong to.

Tests used:
[1] = test system: Malme-3M melanoma cancer cells; assay: Curcumin cell inhibition, MTS assay after 72 hrs; type: cell-based, human
Method: The curcumin nanoemulsion was prepared by combining gelatin and EMG-20 or gelatin and Solutol® HS15 in a 1:1 weight ratio. The cell inhibition activity of the blank nanoemulsion, a 30 micromolar DMSO-curcumin mixture, a 0.030 micromolar DMSO-curcumin mixture, and a 0.03 micromolar curcumin nanoemulsion were contacted with melanoma cancer cell lines.

[2] = Stability of Coumarin preparations over several days stored at room temperature (size, PDI); type: physicochemical; details: for Size: in nm (unit assumed)
Excerpt: The fluorescence intensity of a Coumarin 6 nanoemulsion can be increased by adding a polysaccharide polymer such as dextran to the SANE formulation. As described in Example 2, the fluorescent dye Coumarin 6 SANE composition can optionally comprise dextran to increase fluorescence intensity of the SANE dye composition. Example 2 describes preparation of Coumarin 6 SANE dye formulations with and without the addition of the polymer dextran. Example 2 also describes measured particle size, stability and fluorescence intensity determined in samples of (a) DMSO coumarin 6 preparation, (b) nanoemulsion of coumarin 6 preparation without dextran, and (c) nanoemulsion of coumarin 6 with dextran.
As shown by the data in Table 2 is that over a 3 day period, these SANE preparations of Coumarin 6 were stable (determined by particle size changes) at room temperature for at least 3 days compared to the DMSO coumarin 6 preparation.
(§1) Particle sizes of all the formulations indicated in the Examples below were measured by dynamic laser light scattering, also called Photon correlation spectroscopy, using the Malvern Zetasizer-S instrument (Malvern Instruments Inc., Southborough Mass.). Each sample was diluted immediately before measurement with distilled water to avoid multiple light scattering effects. […] The particle diffusion (translational diffusion) due to Brownian motion was measured in the instrument and related to the size of the parameter. The mean hydrodynamic diameter (DH) was calculated from the Strokes-Einstein equation. The range of particle sizes which can be measured by the Zetasizer is from 0.6 to 6000 nm.

[3] = Particle size by dynamic laser light scattering (Malvern Zetasizer-S); type: physicochemical
Method: Unless otherwise indicated, “average particle size” refers to the z-average particle or droplet diameter measured by dynamic laser light scattering, also called Photon correlation spectroscopy (e.g., using the Malvern Zetasizer-S instrument, Malvern Instruments Inc., Southborough Mass.). Unless otherwise indicated, the z-average particle sizes were determined using the Malvern Zetasizer-S instrument with a 4 mW He—Ne laser operating at a wavelength of 633 nm and an avalanche photodiode detector (APD). The z-average diameter is the mean hydrodynamic diameter and the polydispersity index is an estimate of the width of the distribution. Both z-average diameter and polydispersity index (“PDI”) are calculated according to the International Standard on dynamic light scattering, ISO13321.
as §1, with “Mass.).” for “Mass.). Each sample was diluted immediately before measurement with distilled water to avoid multiple light scattering effects.”

[4] = test system: PL-45 cells; assay: Paclitaxel growth inhibition, 48 hours; type: cell-based, human; details: PL-45, after 48 hours of treatment
Method: FIG. 16C is a graph showing dose-dependant anti cancer activity of paclitaxel in DMSO and paclitaxel in a nanoemulsion made up of rice bran oil and Solutol® HS15 against PL-45 cells after 48 hours of treatment. The graphs indicate a 44% and 40% growth inhibition when treated with paclitaxel in DMSO and paclitaxel in nanoemulsion respectively. […] The error bars represent the standard error of mean for experiments done in duplicates.

[5] = test system: CCL-221 cells; assay: Paclitaxel growth inhibition, 48 hours; type: cell-based, human; details: CCl-221, after 48 hours of treatment
Excerpt: (§2) The graphs indicate a 60% and 52% growth inhibition when treated with paclitaxel in DMSO and paclitaxel in nanoemulsion respectively. […] The error bars represent the standard error of mean for experiments done in duplicates.

[6] = test system: P10.05 cells; assay: Paclitaxel growth inhibition, 48 hours; type: cell-based, human; details: P10.05, after 48 hours of treatment
Excerpt: as §2

[7] = test system: melanoma cancer cells (Malme-3M); assay: 5-FU Cell Proliferation Assay (MTS Assay); type: cell-based, human; details: 24 μM, compared with 5-FU nanoemulsion
Method: The in vitro activity of the 5-FU nanoemulsion was measured against three cancer cell lines (CCL-221, Malme-3M, and CCL-2) using a Cell Proliferation Assay (MTS Assay). The MTS Assay uses a tetrazolium compound (MTS) and an electron coupling reagent (PES) was purchased from Fisher Scientific (Pittsburgh, Pa.). The tetrazolium compound (MTS) can be bioreduced into a colored formazan product by dehydrogenase enzymes in metabolic cells. Formazan is a water-soluble compound and can be dissolved in the culture medium, the quantity of formazan product as measured by the absorbance at 490 nm was directly proportional to the number of living cells in culture.
After incubation for 5 hours, the cells were attached to the bottom of the well and the diluted nanoemulsions were then added and incubated for 48 hours. Subsequently, the media were removed by aspiration and 100 microliter of fresh phenol free cell culture media was pipetted followed by adding 20 microliter of MTS reagent into each well. The plate was incubated for 2 hours at 37 degrees C. in a humidified, 5% CO2 atmosphere and the 96-well plate reader was used to measure the absorbance at 490 nm. The 5-FU nanoemulsions prepared in this study had 20 nm average particle size.

[8] = Electrokinetic potential (zeta potential); type: physicochemical; details: at 10 mv
Method: The electrokinetic potential (“Zeta-potential”) of the curcumin nanoemulsion was measured (FIG. 10A) and compared to the corresponding electrokinetic potential for curcumin in water (FIG. 10B). The zeta potential of a colloidal system corresponds to the electric potential in the interfacial double layer (DL) at the location of the slipping plane versus a point in the bulk fluid away from the interface (i.e., the potential difference between the dispersion medium and the stationary layer of fluid attached to the dispersed particle). For small particles (e.g., nanoemulsions) a higher zeta potential corresponds to greater stability of a colloidal dispersion, representing a greater degree of repulsion between adjacent particles in the dispersion to resist particle/droplet aggregation. A zeta potential of −23.5 (wall zeta potential of −50.3) was measured for the curcumin nanoemulsion (FIG. 10A), compared to a zeta wall potential at 10 mv of −2.53 for curcumin in water (FIG. 10B).

- average particle (droplet) size, Z-average [3]: ≥ 1,000 nm
Compound: CC(=O)O[C@H]1C(=O)[C@@]2(C)[C@H]([C@H](OC(=O)c3ccccc3)[C@]3(O)C[C@H](OC(=O)[C@H](O)[C@@H](NC(=O)c4ccccc4)c4ccccc4)C(C)=C1C3(C)C)[C@]1(OC(C)=O)CO[C@@H]1C[C@@H]2O [paclitaxel in DMSO, paclitaxel]
- growth inhibition [4]: 44%
- growth inhibition [5]: 60%
- growth inhibition [6]: 60%

- zeta wall potential [8]: −2.53
Compound: COc1cc(/C=C/C(=O)CC(=O)/C=C/c2ccc(O)c(OC)c2)ccc1O [curcumin in water, (1E,6E)-1,7-bis(4-hydroxy-3-methoxyphenyl)-1,6-heptadiene-3,5-dione]

The remaining lines, values behind:

Compound: COc1cc(/C=C/C(=O)CC(=O)/C=C/c2ccc(O)c(OC)c2)ccc1O [curcumin in DMSO, (1E,6E)-1,7-bis(4-hydroxy-3-methoxyphenyl)-1,6-heptadiene-3,5-dione]
- inhibition of melanoma cancer cell proliferation ([1]; 0.03 micromolar): efficacy against the melanoma cancer cells is lost
- inhibition of melanoma cancer cell proliferation ([1]; 30 micromolar): inhibited melanoma cancer cell proliferation

Compound: Coumarin 6 [DMSO COUMARIN]
- PDI ([2]; 0 hrs): 0.457
- Size ([2]; 0 hrs): 1373
- PDI ([2]; 72 hrs): 0.857
- Size ([2]; 72 hrs): 1373
- PDI ([2]; 96 hrs): 0.857
- Size ([2]; 96 hrs): 2142
- PDI ([2]; 120 hrs): 0.857
- Size ([2]; 120 hrs): 6000
- PDI ([2]; 144 hrs): 0.857
- Size ([2]; 144 hrs): 6000
- PDI ([2]; 240 hrs): 0.857
- Size ([2]; 240 hrs): 6000

Compound: O=c1[nH]cc(F)c(=O)[nH]1 [non-encapsulation 5-FU, 5-fluorouracil]
- inhibition of cell proliferation [7]: not as effective
